In this assay the test system is Bovine cardiac myofibrils. Briefly: In vitro model of dose-dependent myofibril ATPase modulation (AC1.4, pyruvate kinase/lactate dehydrogenase-coupled ATPase assay at pCa25). The note with it: concentration at which ATPase activity was 1.4-fold higher than the bottom of the dose curve, mean of a minimum of two independent tests. It is filed as biochemical. The method in brief: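 ATP turnover tracked as NADH absorbance loss at 340 nm, coupled via pyruvate kinase/lactate dehydrogenase, with 1 mM ATP, 2 mM MgCl2 and 12 mM K-PIPES at pH 6.80 (22° C) under EGTA/CaCl2 calcium buffering. Substrate was detergent-treated bovine cardiac myofibrils; 4-parameter curve fit, AC1.4 averaged over at least two runs.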

`Cc1cc(C(=O)N2[C@@H](C(=O)N[C@@H](c3ccc(C(F)(F)F)cc3F)C3COC3)C[C@H]3C[C@H]32)cc(S(C)(=O)=O)c1` [Example 323, (1R,3R,5R)-N-((R)-(2-fluoro-4-(trifluoromethyl)phenyl)(3-oxetanyl)methyl)-2-(3-methyl-5-(methylsulfonyl)benzoyl)-2-azabicyclo[3.1.0]hexane-3-carboxamide] displayed an AC1.4 of 0.8707 µM. Next, `N#CC1CN(S(=O)(=O)c2cccc(C(=O)N3CCc4ccccc4C3C(=O)NCc3ccc(C(F)(F)F)cc3)c2)C1` (centres unmarked) [Example 324, 2-(3-((3-cyanoazetidin-1-yl)sulfonyl)benzoyl)-N-(4-(trifluoromethyl)benzyl)-1,2,3,4-tetrahydroisoquinoline-1-carboxamide]: 0.8782 µM; `N#CC1CN(S(=O)(=O)N2CCC[C@H](C(=O)N3[C@@H](C(=O)NCc4ccc(C(F)(F)F)nc4)C[C@H]4C[C@H]43)C2)C1` [Example 326]: 0.8885 µM. Compound `N#CC1(F)CN(S(=O)(=O)N2CCC[C@H](C(=O)N3CCC[C@@H]3C(=O)NCc3ccc(C(F)(F)F)cc3F)C2)C1` [Example 327, 1-(((3S)-1-((3-cyano-3-fluoro-1-azetidinyl)sulfonyl)-3-piperidinyl)carbonyl)-N-(2-fluoro-4-(trifluoromethyl)benzyl)-D-prolinamide] had an AC1.4 of 0.8893 µM. Next, `CS(=O)(=O)c1cccc(C(=O)N2CCOC[C@@H]2C(=O)N[C@@H](c2cc(F)c(Cl)cc2F)C2CC2)c1` [Example 328, (3R)-N-((R)-(4-chloro-2,5-difluorophenyl)(cyclopropyl)methyl)-4-(3-(methylsulfonyl)benzoyl)-3-morpholinecarboxamide]: 0.8776 µM; `O=C(NCc1ccc(C(F)(F)F)cc1)[C@H]1CCCN1C(=O)c1cccc(S(=O)(=O)N2CC3(COC3)C2)c1` [Example 329, 1-((3-(2-oxa-6-azaspiro[3.3]hept-6-ylsulfonyl)phenyl)carbonyl)-N-(4-(trifluoromethyl)benzyl)-D-prolinamide]: 0.8921 µM. As for `C[C@H](NC(=O)[C@H]1CCCN1C(=O)c1cccc(S(=O)(=O)N2CC(C#N)C2)c1)c1ccc(Cl)cc1` [Example 330, N-((1S)-1-(4-chlorophenyl)ethyl)-1-((3-((3-cyano-1-azetidinyl)sulfonyl)phenyl)carbonyl)-D-prolinamide], the figure is 0.8972 µM. `C[C@H](NC(=O)[C@@H](C)N(C)C(=O)c1cccc(S(=O)(=O)N2CC(C#N)C2)c1)c1ccc(Cl)cc1` [Example 331, N-((1R)-2-(((1S)-1-(4-chlorophenyl)ethyl)amino)-1-methyl-2-oxoethyl)-3-((3-cyano-1-azetidinyl)sulfonyl)-N-methylbenzamide] returned an AC1.4 of 0.8976 µM. With `CC(C)C1(O)CN(S(=O)(=O)N2CCC[C@H](C(=O)N3CCC[C@@H]3C(=O)NCc3ccc(C(F)(F)F)cc3F)C2)C1` [Example 332, N-(2-fluoro-4-(trifluoromethyl)benzyl)-1-(((3S)-1-((3-hydroxy-3-(2-propanyl)-1-azetidinyl)sulfonyl)-3-piperidinyl)carbonyl)-D-prolinamide], the AC1.4 came to 0.9097 µM. Next, `N#CC1CN(S(=O)(=O)N2CCC[C@H](C(=O)N3CCC[C@@H]3C(=O)NCc3ccc(Cl)c(C(F)(F)F)c3)C2)C1` [Example 333, N-(4-chloro-3-(trifluoromethyl)benzyl)-1-(((3S)-1-((3-cyano-1-azetidinyl)sulfonyl)-3-piperidinyl)carbonyl)-D-prolinamide]: 0.921 µM. Next, `Cc1ccc(CNC(=O)[C@H]2CCCN2C(=O)[C@@H]2CN(S(=O)(=O)N3CC(C#N)C3)CCN2)cc1F` [Example 334, 1-(((2S)-4-((3-cyano-1-azetidinyl)sulfonyl)-2-piperazinyl)carbonyl)-N-(3-fluoro-4-methylbenzyl)-D-prolinamide]: 0.9294 µM; `N#CC1CN(S(=O)(=O)N2CCC[C@H](C(=O)N3CCC[C@@H]3C(=O)NCc3cccc(C(F)(F)F)c3F)C2)C1` [Example 335, 1-(((3S)-1-((3-cyano-1-azetidinyl)sulfonyl)-3-piperidinyl)carbonyl)-N-(2-fluoro-3-(trifluoromethyl)benzyl)-D-prolinamide]: 0.9362 µM.

For `Cc1ccc(CNC(=O)[C@H]2CCCN2C(=O)[C@H]2CCCN(S(=O)(=O)N3CC(C#N)C3)C2)cc1C` [Example 336, 1-(((3S)-1-((3-cyano-1-azetidinyl)sulfonyl)-3-piperidinyl)carbonyl)-N-(3,4-dimethylbenzyl)-D-prolinamide], the AC1.4 was determined as 0.9372 µM. For the compound `C[C@H](C(=O)NCc1ccc(Cl)cc1)N(C)C(=O)c1cccc(S(=O)(=O)N2CC(C#N)C2)c1` [Example 337, N-((1R)-2-((4-chlorobenzyl)amino)-1-methyl-2-oxoethyl)-3-((3-cyano-1-azetidinyl)sulfonyl)-N-methylbenzamide], the AC1.4 came to 0.9477 µM. Next, `N#CC1CN(S(=O)(=O)N2CCC[C@H](C(=O)N3CCC[C@@H]3C(=O)NCc3c(F)c(F)c(F)c(F)c3F)C2)C1` [Example 338, 1-(((3S)-1-((3-cyano-1-azetidinyl)sulfonyl)-3-piperidinyl)carbonyl)-N-(pentafluorobenzyl)-D-prolinamide]: 0.948 µM. The compound `O=C(NCc1ccc(C(F)(F)F)cc1)[C@H]1CCCN1C(=O)[C@H]1CCCN(S(=O)(=O)N2CCC2c2ccccc2)C1` (stereo partly drawn) [Example 339, 1-(((3S)-1-(((2R)-2-phenyl-1-azetidinyl)sulfonyl)-3-piperidinyl)carbonyl)-N-(4-(trifluoromethyl)benzyl)-D-prolinamide,1-(((3S)-1-(((2S)-2-phenyl-1-azetidinyl)sulfonyl)-3-piperidinyl)carbonyl)-N-(4-(trifluoromethyl)benzyl)-D-prolinamide] had an AC1.4 of 0.9511 µM. Next, `NS(=O)(=O)c1cccc(C(=O)N2C[C@H]3C[C@H]3[C@@H]2C(=O)N[C@@H](c2cc(F)c(Cl)cc2F)C2CC2)c1` [Example 340, (1R,2R,5S)-N-((R)-(4-chloro-2,5-difluorophenyl)(cyclopropyl)methyl)-3-(3-sulfamoylbenzoyl)-3-azabicyclo[3.1.0]hexane-2-carboxamide]: 0.8898 µM; `C[C@H](C(=O)NCc1ccc(Cl)c(Cl)c1)N(C)C(=O)c1cccc(S(=O)(=O)N2CC(C#N)C2)c1` [Example 341, 3-((3-cyano-1-azetidinyl)sulfonyl)-N-((1R)-2-((3,4-dichlorobenzyl)amino)-1-methyl-2-oxoethyl)-N-methylbenzamide]: 0.9606 µM.

On to `CS(=O)(=O)c1cncc(C(=O)N2CSC[C@@H]2C(=O)N[C@@H](c2ccc(C(F)(F)F)cc2F)C2CC2)c1` [Example 342, (4S)-N-((R)-cyclopropyl(2-fluoro-4-(trifluoromethyl)phenyl)methyl)-3-((5-(methylsulfonyl)-3-pyridinyl)carbonyl)-1,3-thiazolidine-4-carboxamide], for which the AC1.4 was 0.9661 µM. As for `O=C(NCc1ccc(C(F)(F)F)cc1)[C@H]1CCCN1C(=O)[C@H]1CCCN(S(=O)(=O)N2CC(OC(F)F)C2)C1` [Example 343, 1-(((3S)-1-((3-(difluoromethoxy)-1-azetidinyl)sulfonyl)-3-piperidinyl)carbonyl)-N-(4-(trifluoromethyl)benzyl)-D-prolinamide], the figure is 0.9742 µM; as for `CS(=O)(=O)c1cccc(C(=O)N2[C@@H](C(=O)N[C@@H](c3ccc(Cl)cc3F)C3CC3)C[C@H]3C[C@H]32)c1` [Example 344, (1R,3R,5R)-N-((R)-(4-chloro-2-fluorophenyl)(cyclopropyl)methyl)-2-(3-(methylsulfonyl)benzoyl)-2-azabicyclo[3.1.0]hexane-3-carboxamide], 0.9555 µM. Consider `CS(=O)(=O)c1ccc(N)c(C(=O)N2CCC[C@@H]2C(=O)N[C@@H](c2ccc(C(F)(F)F)cc2F)C2CC2)c1` [Example 345, 1-(2-amino-5-(methylsulfonyl)benzoyl)-N-((R)-cyclopropyl(2-fluoro-4-(trifluoromethyl)phenyl)methyl)-D-prolinamide], for which the AC1.4 turned out to be 0.9744 µM. As to `COC(=O)CN(C)S(=O)(=O)c1cccc(C(=O)N2CCC[C@@H]2C(=O)NCc2ccc(C(F)(F)F)cc2)c1` [Example 346, methyl (R)-2-(N-methyl-3-(2-((4-(trifluoromethyl)benzyl)carbamoyl)pyrrolidine-1-carbonyl)phenylsulfonamido)acetate], the AC1.4 stood at 1.0139 µM. As for `O=C(N[C@@H](c1ccc(C(F)(F)F)cc1F)C1CC1)[C@H]1CCCCN1C(=O)c1cccc(C(O)C(F)(F)F)c1` (stereo partly drawn) [Example 347, (2R)-N-((R)-cyclopropyl(2-fluoro-4-(trifluoromethyl)phenyl)methyl)-1-(3-(2,2,2-trifluoro-1-hydroxyethyl)benzoyl)piperidine-2-carboxamide], the figure is 1.0255 µM.

The compound `N#CC1CN(S(=O)(=O)N2CCC[C@H](C(=O)N3[C@@H](C(=O)NCc4ccc(C(F)(F)F)cn4)C[C@H]4C[C@H]43)C2)C1` [Example 348, (1R,3R,5R)-2-(((3S)-1-((3-cyano-1-azetidinyl)sulfonyl)-3-piperidinyl)carbonyl)-N-((5-(trifluoromethyl)-2-pyridinyl)methyl)-2-azabicyclo[3.1.0]hexane-3-carboxamide] had an AC1.4 of 1.0273 µM. Next, `NC(=O)C1(c2cccc(C(=O)N3[C@@H](C(=O)N[C@@H](c4ccc(C(F)(F)F)cc4F)C4COC4)C[C@H]4C[C@H]43)c2)CC1` [Example 349, (1R,3R,5R)-2-(3-(1-carbamoylcyclopropyl)benzoyl)-N-((R)-(2-fluoro-4-(trifluoromethyl)phenyl)(3-oxetanyl)methyl)-2-azabicyclo[3.1.0]hexane-3-carboxamide]: 1.0296 µM.

Source of the values: patent US11780826B2 (Amgen Inc., priority 2017, dated 2023).
